“And” between values parts separate entries of the source, which are not always exact repeats. Equal entries are not always repeated.
Assays:
human NPRA (human) = human NPRA (human) (UniProt P16066); assay: cell-based or functional assay
[1] = biological target: rat NPRB (natriuretic peptide receptor B) (rat) (UniProt P16067); assay: cell-based or functional assay
[2] = biological target: human NPRB (natriuretic peptide receptor B) (human) (UniProt P20594); assay: cell-based or functional assay
rat NPRA = biological target: T1, rat NPRA (Rattus norvegicus, UniProt P18910); assay: Rat NPRA cGMP activity assay (HTRF) in HEK293 cells overexpressing NPRA; type: cell-based; settings: assay buffer with 0.1% casein, read-out: cGMP Assay (EC50, pM) w/Casein rNPRA
T1 construct: Full-Length cDNA Cloning and Generation of Cell Lines Overexpressing Natriuretic Peptide Receptors (NPRs); expressed in transfected cells; host or cells: Jump-in T-Rex HEK293 cells, pJTI R4 CMV-TO MCS pA vector, tetracycline induction
T1 sequence (P18910 29-1057): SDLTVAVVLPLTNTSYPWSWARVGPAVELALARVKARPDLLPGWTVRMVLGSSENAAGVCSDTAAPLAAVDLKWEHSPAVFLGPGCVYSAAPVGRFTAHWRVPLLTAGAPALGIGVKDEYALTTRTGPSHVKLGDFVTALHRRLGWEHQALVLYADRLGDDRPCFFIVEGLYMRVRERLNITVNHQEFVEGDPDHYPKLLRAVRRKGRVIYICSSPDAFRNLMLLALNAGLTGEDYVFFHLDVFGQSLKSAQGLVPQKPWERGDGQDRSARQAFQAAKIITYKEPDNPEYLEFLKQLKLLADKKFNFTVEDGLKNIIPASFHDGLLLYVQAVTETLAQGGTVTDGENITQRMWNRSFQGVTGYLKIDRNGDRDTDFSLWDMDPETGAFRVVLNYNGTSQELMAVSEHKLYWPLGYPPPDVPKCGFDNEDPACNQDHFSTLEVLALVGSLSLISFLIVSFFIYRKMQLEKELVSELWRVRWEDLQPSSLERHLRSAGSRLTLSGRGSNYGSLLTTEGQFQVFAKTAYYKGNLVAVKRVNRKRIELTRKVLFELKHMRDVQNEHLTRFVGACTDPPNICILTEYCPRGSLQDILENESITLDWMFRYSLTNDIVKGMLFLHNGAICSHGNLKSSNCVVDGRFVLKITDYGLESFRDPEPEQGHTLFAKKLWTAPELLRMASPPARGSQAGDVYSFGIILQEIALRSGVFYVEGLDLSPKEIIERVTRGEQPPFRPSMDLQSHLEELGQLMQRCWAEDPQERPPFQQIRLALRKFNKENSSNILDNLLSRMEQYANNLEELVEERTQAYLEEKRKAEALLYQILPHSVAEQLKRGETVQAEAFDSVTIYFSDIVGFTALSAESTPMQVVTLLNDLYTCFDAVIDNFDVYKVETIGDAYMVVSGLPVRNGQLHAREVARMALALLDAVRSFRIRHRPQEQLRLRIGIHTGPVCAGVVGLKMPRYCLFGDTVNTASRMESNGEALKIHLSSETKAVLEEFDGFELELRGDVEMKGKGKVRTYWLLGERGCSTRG
Method in brief: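 Tetracycline-induced (300 ng/mL, 48 h) T-Rex HEK293 cells expressing NPRA, 4000 cells/well, treated 40 min at room temperature with polypeptide (8 points, 10 μM to 1 pM) in HBSS/HEPES buffer with 0.5 mM IBMX, pH 7.4. cGMP by HTRF, normalised to 100 nM amidated rat ANP and buffer.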

SAUNA Mouse Model = assay: Salty drinking water/Unilateral Nephrectomy/Aldosterone (SAUNA) mouse model of heart failure; type: in vivo, male C57BL/6N mice; settings: SAUNA mice, once daily SC 0.4 mg/kg
Source text: The effect of Exemplary ANP polypeptides is investigated in the Salty drinking water/Unilateral Nephrectomy/Aldosterone (SAUNA) Mouse Model, murine model of heart failure induced by chronic aldosterone infusion. After acclimation for approximately 2 weeks, heart failure is induced in male C57BL/6N (Taconic) mice by uninephrectomy, continuous d-aldosterone infusion and 1.0% sodium chloride in drinking water for 4 weeks (Tanaka et al., 2016; Valero-Munoz, Li, Wilson, Boldbaatar, et al., 2016; Valero-Munoz, Li, Wilson, Hulsmans, et al., 2016; Yang, Kong, Shuai, Zhang, & Huang, 2020; Yoon et al., 2021). […] The pressure volume (PV) catheter is introduced into the left ventricle via apical stab with a 27G needle. Calibration of the PV catheter is performed according to the manufacturer's instructions. Data are analyzed with LabChart pro software (AD Instruments). After PV loop measurements, mice are sacrificed, and ratio of heart weight to tibia length is used for indicator of hypertrophy.

[3] = Pharmacokinetics in male Sprague Dawley rats; type: in vivo; settings: rat, sc, mean, single subcutaneous administration of 200 nMol/kg, plasma
Description: The pharmacokinetics of the exemplary analogs are evaluated following a single subcutaneous administration of […] to male Sprague Dawley rats. Blood samples are collected over 120 hours, and resulting individual plasma concentrations are used to calculate pharmacokinetic parameters. Peptide plasma (K3 EDTA) concentrations are determined using a qualified LC/MS method that measured the intact mass of the ANP polypeptide. Each peptide and an analog as an internal standard are extracted from 100% specie specified plasma using methanol with 0.1% formic acid. A Thermo Q-Exactive, High Resolution Instrument, and a Thermo Easy Spray PepMap are combined for LC/MS detection.

Chain of human NPRA (human) (P16066 33-1061): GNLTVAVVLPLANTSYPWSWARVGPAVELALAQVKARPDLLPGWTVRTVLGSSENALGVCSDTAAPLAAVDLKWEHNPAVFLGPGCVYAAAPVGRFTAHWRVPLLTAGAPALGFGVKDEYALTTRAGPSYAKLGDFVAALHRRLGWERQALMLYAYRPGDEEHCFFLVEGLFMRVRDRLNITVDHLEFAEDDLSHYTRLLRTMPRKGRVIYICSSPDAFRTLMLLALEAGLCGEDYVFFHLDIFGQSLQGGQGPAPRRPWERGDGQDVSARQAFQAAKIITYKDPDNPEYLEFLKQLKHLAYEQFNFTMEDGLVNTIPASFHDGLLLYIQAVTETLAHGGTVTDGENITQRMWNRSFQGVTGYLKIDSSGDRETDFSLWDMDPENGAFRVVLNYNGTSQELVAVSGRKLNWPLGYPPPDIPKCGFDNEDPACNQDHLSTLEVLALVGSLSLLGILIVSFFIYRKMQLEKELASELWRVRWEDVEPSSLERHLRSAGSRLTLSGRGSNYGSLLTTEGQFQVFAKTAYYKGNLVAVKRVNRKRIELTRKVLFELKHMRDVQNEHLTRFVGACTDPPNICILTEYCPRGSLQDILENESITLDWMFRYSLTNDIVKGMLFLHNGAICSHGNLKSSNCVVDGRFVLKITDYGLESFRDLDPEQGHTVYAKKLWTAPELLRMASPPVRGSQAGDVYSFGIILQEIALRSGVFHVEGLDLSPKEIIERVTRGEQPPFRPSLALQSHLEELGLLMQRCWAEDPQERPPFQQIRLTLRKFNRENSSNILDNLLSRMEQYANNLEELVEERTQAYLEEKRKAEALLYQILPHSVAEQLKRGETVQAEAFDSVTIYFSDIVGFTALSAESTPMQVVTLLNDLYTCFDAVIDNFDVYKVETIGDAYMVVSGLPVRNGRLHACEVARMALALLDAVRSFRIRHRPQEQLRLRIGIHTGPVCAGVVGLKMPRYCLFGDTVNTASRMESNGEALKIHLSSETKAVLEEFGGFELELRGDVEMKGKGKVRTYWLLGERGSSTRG
Chain of human NPRB (natriuretic peptide receptor B) (human) (P20594 23-1047): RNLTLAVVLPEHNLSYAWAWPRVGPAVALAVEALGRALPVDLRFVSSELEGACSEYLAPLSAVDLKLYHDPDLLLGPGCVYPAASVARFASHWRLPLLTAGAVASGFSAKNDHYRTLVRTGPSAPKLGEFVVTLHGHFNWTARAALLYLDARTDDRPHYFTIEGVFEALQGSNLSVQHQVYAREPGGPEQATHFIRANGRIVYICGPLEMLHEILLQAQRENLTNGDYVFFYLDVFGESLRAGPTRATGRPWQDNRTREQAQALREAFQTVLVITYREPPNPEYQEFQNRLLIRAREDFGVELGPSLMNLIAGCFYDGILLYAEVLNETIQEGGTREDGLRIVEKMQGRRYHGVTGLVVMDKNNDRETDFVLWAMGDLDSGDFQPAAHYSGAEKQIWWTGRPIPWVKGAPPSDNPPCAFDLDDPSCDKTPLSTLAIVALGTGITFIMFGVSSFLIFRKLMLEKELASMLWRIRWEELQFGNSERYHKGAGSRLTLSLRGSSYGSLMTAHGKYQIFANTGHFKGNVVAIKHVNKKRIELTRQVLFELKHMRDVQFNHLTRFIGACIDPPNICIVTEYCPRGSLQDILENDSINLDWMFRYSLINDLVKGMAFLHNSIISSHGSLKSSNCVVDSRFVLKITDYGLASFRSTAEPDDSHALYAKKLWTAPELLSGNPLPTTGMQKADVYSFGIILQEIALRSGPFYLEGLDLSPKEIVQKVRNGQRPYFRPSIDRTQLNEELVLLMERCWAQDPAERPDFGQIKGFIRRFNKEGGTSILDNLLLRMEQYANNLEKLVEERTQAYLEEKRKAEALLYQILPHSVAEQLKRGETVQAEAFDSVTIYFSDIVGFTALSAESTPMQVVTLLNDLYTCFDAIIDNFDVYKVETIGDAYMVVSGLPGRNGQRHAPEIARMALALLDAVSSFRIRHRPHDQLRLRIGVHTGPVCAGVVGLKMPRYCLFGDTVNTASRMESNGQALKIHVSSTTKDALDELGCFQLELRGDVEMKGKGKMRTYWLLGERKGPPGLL
Chain of rat NPRB (natriuretic peptide receptor B) (rat) (P16067 17-1047): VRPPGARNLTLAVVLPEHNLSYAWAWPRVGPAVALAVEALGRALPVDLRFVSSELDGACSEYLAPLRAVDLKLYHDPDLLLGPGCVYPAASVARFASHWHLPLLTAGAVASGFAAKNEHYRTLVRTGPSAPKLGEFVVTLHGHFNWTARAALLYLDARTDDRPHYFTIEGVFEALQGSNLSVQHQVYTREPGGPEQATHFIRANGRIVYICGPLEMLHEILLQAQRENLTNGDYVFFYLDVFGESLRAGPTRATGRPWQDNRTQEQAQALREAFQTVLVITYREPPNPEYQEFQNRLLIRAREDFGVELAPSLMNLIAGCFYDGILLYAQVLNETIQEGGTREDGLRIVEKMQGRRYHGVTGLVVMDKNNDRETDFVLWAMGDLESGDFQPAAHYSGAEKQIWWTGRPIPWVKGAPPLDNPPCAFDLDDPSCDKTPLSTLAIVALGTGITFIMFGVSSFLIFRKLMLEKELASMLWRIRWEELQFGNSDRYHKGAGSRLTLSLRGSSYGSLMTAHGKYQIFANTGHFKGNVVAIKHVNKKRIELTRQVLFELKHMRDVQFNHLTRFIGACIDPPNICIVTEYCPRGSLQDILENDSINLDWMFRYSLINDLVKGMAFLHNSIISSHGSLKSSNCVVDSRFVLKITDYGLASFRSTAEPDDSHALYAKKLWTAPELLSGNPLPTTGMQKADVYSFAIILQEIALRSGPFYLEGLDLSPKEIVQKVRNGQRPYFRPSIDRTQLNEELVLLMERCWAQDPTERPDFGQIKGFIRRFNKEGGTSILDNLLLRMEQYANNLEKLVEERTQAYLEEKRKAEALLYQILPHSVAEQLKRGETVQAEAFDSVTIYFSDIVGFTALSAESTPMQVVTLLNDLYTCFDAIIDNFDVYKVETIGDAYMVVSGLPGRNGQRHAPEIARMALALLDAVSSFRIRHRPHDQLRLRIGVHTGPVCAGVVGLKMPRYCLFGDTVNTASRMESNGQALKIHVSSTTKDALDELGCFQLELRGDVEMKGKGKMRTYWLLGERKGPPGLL

With “HOOC-(CH2)18-CO-(γGlu)-EKEKEKG-PEG24-EK-βAla-RSS[…]PSFRHGGP-NH2 (peptide)” the cGMP Assay (EC50, pM) w/BSA, hNPRA (human NPRA (human)) was 2960 pM and 1270 pM and the cGMP Assay (EC50, pM) w/Casein, hNPRA (human NPRA (human)) was 1010 pM and 669 pM.

With “human CNP-22 (from UniProt P23582 105-126) (peptide)” the cGMP production (HTRF) in HEK293 cells overexpressing NPRB; concentration that defines the 100% response [1] was 1 µM and the cGMP production (HTRF) in HEK293 cells overexpressing NPRB; concentration that defines the 100% response [2] was 1 µM.

In the case of `CC[C@H](C)[C@@H]1NC(=O)[C@H](CCCNC(=N)N)NC(=O)[C@H](CC(=O)O)NC(=O)[C@H]([C@@H](C)CC)NC(=O)[C@H](CCCNC(=N)N)NC(=O)CNC(=O)CNC(=O)[C@H](Cc2ccccc2)NC(=O)[C@@H](NC(=O)[C@H](CO)NC(=O)[C@H](CO)NC(=O)[C@H](CCCNC(=N)N)NC(=O)[C@H](CCCNC(=N)N)NC(=O)[C@H](CC(C)C)NC(=O)[C@H](CO)NC(=O)CNC(=O)[C@H](CCCCN)NC(=O)[C@H](CCC(=O)O)NC(=O)[C@H](CCCCN)NC(=O)[C@H](CCC(=O)O)NC(=O)[C@H](CCCCN)NC(=O)[C@H](CCC(=O)O)NC(=O)CC[C@H](NC(=O)CCCCCCCCCCCCCCCCCCC(=O)O)C(=O)O)CSSC[C@@H](C(=O)N[C@@H](CC(N)=O)C(=O)N[C@@H](CO)C(=O)N[C@@H](Cc2ccccc2)C(=O)N[C@@H](CCCNC(=N)N)C(=O)N[C@@H](Cc2ccc(O)cc2)C(N)=O)NC(=O)CNC(=O)[C@H](CC(C)C)NC(=O)CNC(=O)[C@H](CO)NC(=O)[C@H](CCC(N)=O)NC(=O)[C@H](C)NC(=O)CNC1=O` [Example 8], the EC50 (rat NPRA) is reported as 493 pM, the blood pressure (SAUNA Mouse Model) is reported as “decrease in blood pressure” and the “left ventricle diastolic pressure” value (SAUNA Mouse Model; PV catheter) is reported as “reduced left ventricle diastolic pressure”. The “heart weight and tibia length” value (SAUNA Mouse Model; indicator of hypertrophy) was “decrease”, the CL/F [3] was 0.698 mL/min/kg and the half-life ([3]; read-out: t½ (converted)) was 15 h.

— patent publication US20240174727A1, “LONG-ACTING NATRIURETIC PEPTIDES AND USES THEREOF” (Eli Lilly and Company, priority 2022, published 2024)
